This note sets out measurements from ChEMBL document CHEMBL1671783, “3-Thiomorpholin-8-oxo-8H-acenaphtho[1,2-b]pyrrole-9-carbonitrile (S1) based molecules as potent, dual inhibitors of B-cell lymphoma 2 (Bcl-2) and myeloid cell leukemia sequence 1 (Mcl-1): structure-based design and structure-activity relationship studies” (J Med Chem, 2011).

The target in experiment [1] is T1, Induced myeloid leukemia cell differentiation protein Mcl-1 (Homo sapiens, UniProt Q07820). The experiment in a line: Displacement of FAM-Bid from human Mcl-1 after 30 mins by fluorescence polarization assay. A general note: In fluorescence polarisation assays a small probe gives low polarisation when free and higher when bound to something large.
T1 sequence (Q07820 whole entry): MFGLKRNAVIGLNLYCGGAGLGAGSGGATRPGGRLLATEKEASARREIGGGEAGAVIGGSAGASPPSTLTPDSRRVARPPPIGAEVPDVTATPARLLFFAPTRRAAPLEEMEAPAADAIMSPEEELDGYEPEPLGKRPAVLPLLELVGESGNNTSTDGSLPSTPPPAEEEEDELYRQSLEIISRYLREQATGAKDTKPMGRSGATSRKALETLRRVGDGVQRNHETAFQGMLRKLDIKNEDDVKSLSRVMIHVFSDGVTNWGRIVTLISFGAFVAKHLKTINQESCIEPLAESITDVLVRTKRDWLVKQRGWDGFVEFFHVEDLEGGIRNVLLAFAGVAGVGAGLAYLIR
Experiment [2] concerns SMMC-7721. The experiment in a line: Cytotoxicity against human SMMC7721 cells after 24 hrs by MTT assay. It is filed as functional, cell-based. The conditions noted are these: SMMC-7721, 24 h. (Tetrazolium assays rely on reduction of a dye to a coloured formazan, in cell work by metabolically active cells.)
The subject of the next experiment is MCF7. The experiment in a line: Cytotoxicity against human MCF7 cells after 24 hrs by MTT assay. The conditions noted are these: MCF7, 24 h. It is filed as functional, cell-based.
In experiment [3] the target is T2, MCL1-BAK1 complex (Homo sapiens) (UniProt Q07820+Q16611). The experiment in a line: Inhibition of Mcl-1/Bak interaction in human SMMC7721 cells at 10 uM after 3 hrs by Western blotting. The format is cell-based. To be noted: SMMC-7721. On the technique in general: In western blotting, separated proteins are transferred to a membrane and probed.
The test system of a further experiment is HEK293. The experiment in a line: Cytotoxicity against human HEK293 cells after 24 hrs by MTT assay. It is filed as cell-based. The conditions noted are these: HEK293, 24 h.
Experiment [4] concerns the target T2, MCL1-BAK1 complex (Homo sapiens). Kind of experiment: Inhibition of Mcl-1/Bak interaction in human MCF7 cells at 10 uM after 3 hrs by Western blotting. The format is cell-based.
The subject of experiment [5] is SMMC-7721. The experiment in a line: Cytotoxicity against human SMMC7721 cells expressing high level of Mcl-1 after 24 hrs by MTT assay. The format is functional, cell-based. The conditions noted are these: SMMC-7721, 24 h.
The target of experiment [6] is T3, Apoptosis regulator Bcl-2 (Homo sapiens, UniProt P10415). The experiment in a line: Displacement of FAM-Bid from human Bcl-2 after 30 mins by fluorescence polarization assay.
T3 sequence (P10415 whole entry): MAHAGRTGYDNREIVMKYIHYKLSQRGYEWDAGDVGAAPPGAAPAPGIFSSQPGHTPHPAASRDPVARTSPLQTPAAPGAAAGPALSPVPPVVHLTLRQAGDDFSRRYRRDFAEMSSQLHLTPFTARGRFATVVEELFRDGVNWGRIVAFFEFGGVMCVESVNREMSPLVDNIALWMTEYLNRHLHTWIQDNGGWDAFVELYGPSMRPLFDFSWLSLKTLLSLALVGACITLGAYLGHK
Experiment [7] deals with T4, Apoptosis regulator BAX/Induced myeloid leukemia cell differentiation protein Mcl-1 (Homo sapiens) (UniProt Q07820+Q07812). The experiment in a line: Inhibition of Mcl-1/Bax interaction in human MCF7 cells at 10 uM after 3 hrs by Western blotting. It is filed as cell-based.
T4 sequence (Q07812 whole entry, looked up): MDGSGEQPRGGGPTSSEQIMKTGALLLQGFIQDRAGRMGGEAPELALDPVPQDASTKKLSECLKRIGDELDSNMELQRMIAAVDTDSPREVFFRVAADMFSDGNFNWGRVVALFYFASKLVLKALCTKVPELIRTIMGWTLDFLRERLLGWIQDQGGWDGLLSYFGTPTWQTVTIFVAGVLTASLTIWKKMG
T4 sequence (Q07820 whole entry, looked up): as the sequence (Q07820 whole entry) above
For experiment [8], the target named is T4, Apoptosis regulator BAX/Induced myeloid leukemia cell differentiation protein Mcl-1 (Homo sapiens). Kind of experiment: Inhibition of Mcl-1/Bax interaction in human SMMC7721 cells at 10 uM after 3 hrs by Western blotting. The conditions noted are these: SMMC-7721. The format is cell-based.
For experiment [9], the target named is T3, Apoptosis regulator Bcl-2. Kind of experiment: Binding affinity to Bcl-2.
The target of experiment [10] is T1, Induced myeloid leukemia cell differentiation protein Mcl-1. Kind of experiment: Displacement of FAM-Bid from human Mcl-1 after 30 mins by ELISA.
The target is the same in experiment [11]. The experiment in a line: Binding affinity to Mcl-1.
For experiment [12], the target named is T3, Apoptosis regulator Bcl-2. The experiment in a line: Displacement of FAM-Bid from human recombinant Bcl-2 after 30 mins by ELISA.
Experiment [13] concerns the target T2, MCL1-BAK1 complex (Homo sapiens). Kind of experiment: Inhibition of Mcl-1/Bak interaction in human SMMC7721 cells expressing high level of Mcl-1 at 10 uM after 3 hrs by Western blotting. To be noted: SMMC-7721. It is filed as cell-based.

The source made the active and inactive calls. No cut-off for these calls is given here. Where only a bound is given, the exact number is not on record here.

Consider `Cc1ccc(Oc2ccc3c4c(cccc24)C2=NC(=O)C(C#N)=C23)cc1`, for which the Ki in [1] was determined as 1920 nM.

For the molecule `N#CC1=C2C(=NC1=O)c1cccc3c(Oc4ccc(-c5ccccc5)cc4)ccc2c13`, the Ki in experiment [1] is 1280 nM.

As for `CC(C)c1ccc(Sc2ccc3c4c(cccc24)C2=NC(=O)C(C#N)=C23)cc1`, the affinity in [1], expressed as Ki, was 82 nM.

Turning to `CC(C)c1ccc(Oc2ccc3c4c(cccc24)C2=NC(=O)C(C#N)=C23)cc1`, the Ki in experiment [1] stood at 99 nM.

In [1], `Cc1ccc(Sc2ccc3c4c(cccc24)C2=NC(=O)C(C#N)=C23)cc1` had a Ki of 1510 nM. This Ki is about 15-fold higher than that of the molecule before.

Take `N#CC1=C2C(=NC1=O)c1cccc3c(Sc4ccccc4)ccc2c13`: the IC50 in the experiment with SMMC-7721 [2], with MCF7, in the experiment on HEK293 and in the experiment with SMMC-7721 [5] was > 50000 nM in each case. Further, the outcome in [3] and in [4] was inactive.

For `COc1ccc(Oc2ccc3c4c(cccc24)C2=NC(=O)C(C#N)=C23)cc1`, the Ki in [1] came out at 258 nM.

Regarding `N#CC1=C2C(=NC1=O)c1cccc3c(Sc4ccc(Br)cc4)ccc2c13`, the Ki in experiment [6] worked out at 382 nM; in [1] it was 49 nM. For the same molecule, the IC50 in the experiment on SMMC-7721 [2] is 190 nM; in the experiment with MCF7, 90 nM; in the experiment with HEK293, > 50000 nM; with SMMC-7721 [5], 180 nM. Also, the outcome in experiment [7] and in experiment [8] was Active.

`N#CC1=C2C(=NC1=O)c1cccc3c(Sc4ccc(-c5ccccc5)cc4)ccc2c13` showed a Ki in [1] of 842 nM. This counts as sub-micromolar.

The molecule `CN(C)c1ccc(Sc2ccc3c4c(cccc24)C2=NC(=O)C(C#N)=C23)cc1` showed a Ki in experiment [1] of 91 nM.

Turning to `CCC(C)(C)c1ccc(Oc2ccc3c4c(cccc24)C2=NC(=O)C(C#N)=C23)cc1`, in experiment [1], the affinity corresponds to a Ki of 967 nM. Compared with the last molecule, the Ki is about 11-fold higher.

In the case of `N#CC1=C2C(=NC1=O)c1cccc3c(N4CCSCC4)ccc2c13`, the Ki in experiment [6] is 319 nM; in experiment [9], 310 nM; in experiment [1] it was 62 nM; in [11] it was 58 nM. Also, the half-maximal inhibitory concentration (IC50) was 170 nM with SMMC-7721 [2]; 90 nM in the experiment on MCF7; > 100000 nM in the experiment on HEK293; 190 nM with SMMC-7721 [5]; 35 nM in [10]; 285 nM in experiment [12]. In addition, the result in [7] and in [8] was Active.

`CCC(C)(C)c1ccc(Sc2ccc3c4c(cccc24)C2=NC(=O)C(C#N)=C23)cc1`: the IC50 in the experiment on SMMC-7721 [2] was 11900 nM; with MCF7, 21300 nM; in the experiment with HEK293 it was > 50000 nM; with SMMC-7721 [5], 25600 nM; in [10], 585 nM; in [12] it was 342 nM. This molecule also displayed a Ki in [1] of 961 nM.

`CN(C)c1ccc(Oc2ccc3c4c(cccc24)C2=NC(=O)C(C#N)=C23)cc1` yielded a Ki in [1] of 122 nM.

In the case of `COc1ccc(Sc2ccc3c4c(cccc24)C2=NC(=O)C(C#N)=C23)cc1`, affinity in experiment [1] was put at a Ki of 151 nM.

With `N#CC1=C2C(=NC1=O)c1cccc3c(Sc4ccc(N)cc4)ccc2c13`, the IC50 in the experiment with SMMC-7721 [2] is 18 nM; in the experiment on MCF7 it was 12 nM; with HEK293, > 50000 nM; in the experiment with SMMC-7721 [5], 16 nM; in [10], 5 nM; in [12] it was 302 nM. Besides, the result in [7], in experiment [8], in experiment [3] and in experiment [4] was Active. Besides, in [13], the result was inactive.

For orientation: Ki means the dissociation constant of the complex between target and ligand, obtained from inhibition or displacement. The low end stands for a stronger hold on the target, the high end for a looser hold on the target. What is called IC50 is the concentration at which inhibition is half-maximal.
